From the kinase profiling compilation of Christmann-Franck et al. (2016)

Columns and labels:
Experiment in all cases: KINOMEscan competition binding
Conditions in all cases: compound 10.0 µM
ABL1 (human) = ABL1 (human) (UniProt P00519)
[1] = system: ABL1 (human), P00519 [Y253F]
ABL2 (human) = ABL2 (human) (UniProt P42684)
CAMKK2 (human) = CAMKK2 (human) (UniProt Q96RR4)
CDK17 (human) = CDK17 (human) (UniProt Q00537)
CDK5 (human) = CDK5 (human) (UniProt Q00535)
CDK7 (human) = CDK7 (human) (UniProt P50613)
CDK8 (human) = CDK8 (human) (UniProt P49336)
CDKL2 (human) = CDKL2 (human) (UniProt Q92772)
CHUK (human) = CHUK (human) (UniProt O15111)
CaMK1 (human) = CaMK1 (human) (UniProt Q14012)
DDR2 (human) = DDR2 (human) (UniProt Q16832)
[2] = system: EGFR (human), P00533 [752-759 del]
[3] = system: EGFR (human), P00533 [A750P; 747-749 del]
[4] = system: EGFR (human), P00533 [G719C]
[5] = system: EGFR (human), P00533 [L858R]
FGFR1 (human) = FGFR1 (human) (UniProt P11362)
Sequence of FGFR1 (human) (P11362 whole entry, looked up): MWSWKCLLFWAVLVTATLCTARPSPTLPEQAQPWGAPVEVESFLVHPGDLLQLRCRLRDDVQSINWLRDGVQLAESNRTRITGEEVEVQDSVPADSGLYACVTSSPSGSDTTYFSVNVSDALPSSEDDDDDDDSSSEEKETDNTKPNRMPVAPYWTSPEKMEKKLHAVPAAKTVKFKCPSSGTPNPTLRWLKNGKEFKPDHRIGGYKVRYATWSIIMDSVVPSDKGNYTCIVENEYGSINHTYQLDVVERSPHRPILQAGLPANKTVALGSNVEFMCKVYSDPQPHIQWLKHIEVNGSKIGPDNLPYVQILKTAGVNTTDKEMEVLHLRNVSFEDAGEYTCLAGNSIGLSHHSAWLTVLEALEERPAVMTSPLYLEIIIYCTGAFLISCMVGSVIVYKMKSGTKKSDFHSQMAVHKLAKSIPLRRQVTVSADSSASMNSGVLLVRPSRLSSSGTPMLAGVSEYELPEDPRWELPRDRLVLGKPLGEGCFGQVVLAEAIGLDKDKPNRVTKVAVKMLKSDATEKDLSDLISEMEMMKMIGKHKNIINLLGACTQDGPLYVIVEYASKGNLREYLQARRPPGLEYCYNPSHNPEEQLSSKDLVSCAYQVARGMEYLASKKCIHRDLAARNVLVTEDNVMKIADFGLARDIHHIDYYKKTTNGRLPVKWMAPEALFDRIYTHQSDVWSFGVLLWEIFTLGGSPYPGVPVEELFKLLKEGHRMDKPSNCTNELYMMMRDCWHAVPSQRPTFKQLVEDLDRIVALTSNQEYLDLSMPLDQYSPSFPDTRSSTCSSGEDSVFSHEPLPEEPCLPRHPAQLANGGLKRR

[6] = system: FGFR3 (human), P22607 [G697C]
Sequence of FGFR3 (human), P22607 [G697C] (P22607 whole entry G697C, looked up): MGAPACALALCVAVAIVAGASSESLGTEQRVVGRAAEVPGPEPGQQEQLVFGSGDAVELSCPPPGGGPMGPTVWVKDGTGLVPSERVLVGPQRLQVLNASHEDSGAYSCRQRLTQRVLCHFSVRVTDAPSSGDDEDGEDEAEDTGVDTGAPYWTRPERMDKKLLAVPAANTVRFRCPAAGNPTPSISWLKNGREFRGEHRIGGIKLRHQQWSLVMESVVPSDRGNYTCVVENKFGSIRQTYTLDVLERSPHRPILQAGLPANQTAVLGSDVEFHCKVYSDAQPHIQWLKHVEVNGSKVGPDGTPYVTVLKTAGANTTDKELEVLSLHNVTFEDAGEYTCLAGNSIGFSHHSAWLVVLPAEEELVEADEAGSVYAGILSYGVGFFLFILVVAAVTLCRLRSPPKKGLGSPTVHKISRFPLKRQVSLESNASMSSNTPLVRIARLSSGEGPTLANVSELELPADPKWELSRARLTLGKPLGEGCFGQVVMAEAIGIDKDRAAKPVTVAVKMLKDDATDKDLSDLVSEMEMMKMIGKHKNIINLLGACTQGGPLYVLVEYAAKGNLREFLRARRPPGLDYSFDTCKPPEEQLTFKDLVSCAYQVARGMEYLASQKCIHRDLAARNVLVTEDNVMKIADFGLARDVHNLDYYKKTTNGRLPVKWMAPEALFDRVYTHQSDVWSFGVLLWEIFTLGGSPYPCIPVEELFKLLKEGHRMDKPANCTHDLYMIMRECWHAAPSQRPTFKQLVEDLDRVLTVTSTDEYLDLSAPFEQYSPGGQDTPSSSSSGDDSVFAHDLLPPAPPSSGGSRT

FGFR4 (human) = FGFR4 (human) (UniProt P22455)
[7] = system: FLT3 (human), P36888 [ITD]
[8] = system: FLT3 (human), P36888 [N841I]
FLT4 (human) = FLT4 (human) (UniProt P35916)
Sequence of FLT4 (human) (P35916 whole entry, looked up): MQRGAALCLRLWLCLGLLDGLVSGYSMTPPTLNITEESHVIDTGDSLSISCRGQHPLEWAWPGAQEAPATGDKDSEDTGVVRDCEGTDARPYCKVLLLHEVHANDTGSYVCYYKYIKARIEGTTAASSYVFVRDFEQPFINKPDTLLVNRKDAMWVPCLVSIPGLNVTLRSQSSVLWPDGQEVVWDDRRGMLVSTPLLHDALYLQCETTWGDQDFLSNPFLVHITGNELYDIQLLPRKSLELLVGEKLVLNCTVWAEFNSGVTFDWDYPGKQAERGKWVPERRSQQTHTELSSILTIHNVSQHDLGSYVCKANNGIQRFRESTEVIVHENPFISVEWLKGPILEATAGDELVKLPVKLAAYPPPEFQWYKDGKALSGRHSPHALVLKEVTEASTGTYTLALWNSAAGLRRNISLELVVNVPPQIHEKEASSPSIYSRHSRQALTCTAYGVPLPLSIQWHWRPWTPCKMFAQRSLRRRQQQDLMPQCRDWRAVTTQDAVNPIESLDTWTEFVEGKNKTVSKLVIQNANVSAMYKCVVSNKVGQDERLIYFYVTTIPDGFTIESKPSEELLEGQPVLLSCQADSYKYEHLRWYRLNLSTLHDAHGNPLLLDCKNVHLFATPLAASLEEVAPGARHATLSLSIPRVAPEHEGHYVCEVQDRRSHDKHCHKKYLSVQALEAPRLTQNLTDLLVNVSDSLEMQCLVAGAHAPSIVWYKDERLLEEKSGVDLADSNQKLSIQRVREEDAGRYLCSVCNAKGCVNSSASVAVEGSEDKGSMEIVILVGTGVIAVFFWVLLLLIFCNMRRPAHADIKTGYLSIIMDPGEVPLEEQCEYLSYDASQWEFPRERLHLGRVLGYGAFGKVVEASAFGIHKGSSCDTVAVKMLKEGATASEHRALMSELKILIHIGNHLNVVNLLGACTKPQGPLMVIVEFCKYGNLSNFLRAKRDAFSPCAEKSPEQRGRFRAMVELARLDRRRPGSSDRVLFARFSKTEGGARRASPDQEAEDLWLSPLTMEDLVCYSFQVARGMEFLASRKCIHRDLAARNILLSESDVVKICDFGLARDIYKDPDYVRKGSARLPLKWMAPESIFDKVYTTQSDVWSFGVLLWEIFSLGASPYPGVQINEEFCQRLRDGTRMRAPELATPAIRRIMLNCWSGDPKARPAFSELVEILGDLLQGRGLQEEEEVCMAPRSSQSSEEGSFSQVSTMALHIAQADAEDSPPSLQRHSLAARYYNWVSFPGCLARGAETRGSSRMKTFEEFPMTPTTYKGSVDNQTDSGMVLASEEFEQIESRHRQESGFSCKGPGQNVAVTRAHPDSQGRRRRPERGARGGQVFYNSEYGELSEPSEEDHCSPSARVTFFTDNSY

FRK (human) = FRK (human) (UniProt P42685)
HIPK1 (human) = HIPK1 (human) (UniProt Q86Z02)
INSR (human) = INSR (human) (UniProt P06213)
[9] = target: JAK2 JH1 catalytic (human) (UniProt O60674)
[10] = system: KIT (human), P10721 [V559D/T670I]
LCK (human) = LCK (human) (UniProt P06239)
MAPK12 (human) = MAPK12 (human) (UniProt P53778)
MAPK13 (human) = MAPK13 (human) (UniProt O15264)
MLTK (human) = MLTK (human) (UniProt Q9NYL2)
Sequence of MLTK (human) (Q9NYL2 whole entry, looked up): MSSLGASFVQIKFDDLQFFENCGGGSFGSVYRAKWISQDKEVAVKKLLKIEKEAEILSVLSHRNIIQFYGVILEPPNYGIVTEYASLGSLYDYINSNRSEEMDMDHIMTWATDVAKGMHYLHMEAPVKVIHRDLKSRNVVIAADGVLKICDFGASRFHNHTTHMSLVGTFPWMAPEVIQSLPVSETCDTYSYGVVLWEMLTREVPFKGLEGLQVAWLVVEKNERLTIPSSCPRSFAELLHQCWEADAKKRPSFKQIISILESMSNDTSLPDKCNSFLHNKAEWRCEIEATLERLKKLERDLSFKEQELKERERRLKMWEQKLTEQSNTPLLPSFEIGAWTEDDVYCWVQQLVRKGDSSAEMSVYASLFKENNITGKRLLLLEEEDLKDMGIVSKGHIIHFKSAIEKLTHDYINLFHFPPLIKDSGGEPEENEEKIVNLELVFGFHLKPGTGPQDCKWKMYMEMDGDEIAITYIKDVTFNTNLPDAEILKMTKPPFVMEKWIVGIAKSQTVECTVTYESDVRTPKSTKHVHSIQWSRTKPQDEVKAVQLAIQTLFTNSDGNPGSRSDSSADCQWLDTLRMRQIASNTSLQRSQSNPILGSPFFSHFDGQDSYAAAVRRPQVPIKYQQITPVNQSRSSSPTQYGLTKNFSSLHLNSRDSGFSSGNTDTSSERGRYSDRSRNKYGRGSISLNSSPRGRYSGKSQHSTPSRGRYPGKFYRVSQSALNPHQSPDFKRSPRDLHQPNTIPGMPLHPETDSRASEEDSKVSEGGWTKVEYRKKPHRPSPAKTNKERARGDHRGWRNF

PRKAA1 (human) = PRKAA1 (human) (UniProt Q13131)
PRKACB (human) = PRKACB (human) (UniProt P22694)
PRKCE (human) = PRKCE (human) (UniProt Q02156)
RET (human) = RET (human) (UniProt P07949)
Sequence of RET (human) (P07949 whole entry, looked up): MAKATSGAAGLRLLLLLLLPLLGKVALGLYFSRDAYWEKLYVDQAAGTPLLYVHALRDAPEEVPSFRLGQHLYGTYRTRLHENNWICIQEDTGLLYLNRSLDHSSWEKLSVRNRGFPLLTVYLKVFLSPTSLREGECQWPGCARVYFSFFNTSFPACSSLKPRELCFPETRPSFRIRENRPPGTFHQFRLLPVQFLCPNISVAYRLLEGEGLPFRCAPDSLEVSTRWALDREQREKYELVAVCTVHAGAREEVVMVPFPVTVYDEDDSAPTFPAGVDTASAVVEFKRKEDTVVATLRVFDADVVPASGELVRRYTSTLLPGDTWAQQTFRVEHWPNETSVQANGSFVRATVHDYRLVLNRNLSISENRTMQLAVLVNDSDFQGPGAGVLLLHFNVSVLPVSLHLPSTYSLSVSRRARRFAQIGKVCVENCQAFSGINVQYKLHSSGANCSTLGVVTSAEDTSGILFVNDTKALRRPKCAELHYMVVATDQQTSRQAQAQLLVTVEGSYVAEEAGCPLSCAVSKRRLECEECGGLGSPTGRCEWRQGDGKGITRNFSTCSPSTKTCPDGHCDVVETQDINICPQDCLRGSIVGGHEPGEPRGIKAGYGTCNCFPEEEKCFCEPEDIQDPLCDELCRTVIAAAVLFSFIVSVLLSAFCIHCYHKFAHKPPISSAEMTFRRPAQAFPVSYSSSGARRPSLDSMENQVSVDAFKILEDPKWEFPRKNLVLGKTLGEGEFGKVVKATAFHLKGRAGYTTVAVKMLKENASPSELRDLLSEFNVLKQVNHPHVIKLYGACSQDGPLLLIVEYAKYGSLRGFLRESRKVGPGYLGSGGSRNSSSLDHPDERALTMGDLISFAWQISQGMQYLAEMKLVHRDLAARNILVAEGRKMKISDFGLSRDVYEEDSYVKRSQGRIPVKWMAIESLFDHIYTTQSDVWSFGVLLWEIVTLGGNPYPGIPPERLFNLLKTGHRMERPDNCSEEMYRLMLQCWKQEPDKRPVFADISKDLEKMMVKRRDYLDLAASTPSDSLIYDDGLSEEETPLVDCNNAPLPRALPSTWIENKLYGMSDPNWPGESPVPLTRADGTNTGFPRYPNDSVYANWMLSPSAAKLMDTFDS

[11] = system: RET (human), P07949 [V804M]
Sequence of RET (human), P07949 [V804M] (P07949 whole entry V804M, looked up): as the sequence (P07949 whole entry, looked up) above, with V804M counted along it

RPS6KA5 KD1 (human) = RPS6KA5 KD1 (human) (UniProt O75582)
[12] = target: TYK2 JH1 catalytic (human) (UniProt P29597)
ULK3 (human) = ULK3 (human) (UniProt Q6PHR2)
YES1 (human) = YES1 (human) (UniProt P07947)

For `CCN1CCN(Cc2ccc(NC(=O)c3ccc(C)c(Oc4ccnc5[nH]ccc45)c3)cc2C(F)(F)F)CC1`, the kinase still bound, per cent of control (ABL1 (human)) was 0.1%, the kinase still bound, per cent of control [1] was 1.1% and the kinase still bound, per cent of control (ABL2 (human)) was 0.6%. The kinase still bound, per cent of control (CAMKK2 (human)) was 28%, the residual activity (CDK17 (human)) was 0.1% and the residual activity (CDK5 (human)) was 19%. For the same compound, the residual activity (CDK7 (human)) was 2.4%, the residual activity (CDK8 (human)) was 3.9% and the residual activity (CDKL2 (human)) was 0.9%. The kinase still bound, per cent of control (CHUK (human)) was 0.95%, the kinase still bound, per cent of control (CaMK1 (human)) was 0% and the kinase still bound, per cent of control (DDR2 (human)) was 5.1%. For the same compound, the kinase still bound, per cent of control [2] was 4.6%, the kinase still bound, per cent of control [3] was 1.5% and the kinase still bound, per cent of control [4] was 12%. It also gave a kinase still bound, per cent of control [5] of 14%, a kinase still bound, per cent of control (FGFR1 (human)) of 1.7% and a kinase still bound, per cent of control [6] of 16%. For the same compound, the kinase still bound, per cent of control (FGFR4 (human)) was 0.45%, the kinase still bound, per cent of control [7] was 0.7% and the kinase still bound, per cent of control [8] was 0%. The kinase still bound, per cent of control (FLT4 (human)) was 0.2%, the kinase still bound, per cent of control (FRK (human)) was 0.7% and the kinase still bound, per cent of control (HIPK1 (human)) was 6.2%. The kinase still bound, per cent of control (INSR (human)) was 30%, the kinase still bound, per cent of control [9] was 11% and the kinase still bound, per cent of control [10] was 0.05%. The kinase still bound, per cent of control (LCK (human)) was 0.8%, the kinase still bound, per cent of control (MAPK12 (human)) was 0% and the kinase still bound, per cent of control (MAPK13 (human)) was 0.55%. For the same compound, the kinase still bound, per cent of control (MLTK (human)) was 0.35%, the kinase still bound, per cent of control (PRKAA1 (human)) was 33% and the residual activity (PRKACB (human)) was 14%. The kinase still bound, per cent of control (PRKCE (human)) was 20%, the kinase still bound, per cent of control (RET (human)) was 0% and the kinase still bound, per cent of control [11] was 1%. For the same compound, the kinase still bound, per cent of control (RPS6KA5 KD1 (human)) was 4.7%, the kinase still bound, per cent of control [12] was 0% and the kinase still bound, per cent of control (ULK3 (human)) was 0.1%. For the same compound, the kinase still bound, per cent of control (YES1 (human)) was 1.6%.
